# Patent publication US9993554B2 (CENTRO NACIONAL DE INVESTIGACIONES ONCOLOGICAS (CNIO), priority 2010, dated 2018)
# Test system: phospho-Ser-473-Akt
# Assay: AKT phosphorylation inhibition, Western blot cell assay
# Format: cell-based
# Details: Homo sapiens; cell assay procedure; read-out: IC50 of AKT Phosphorylation Inhibition, p-AKT cell
# Protocol: The cell lines were obtained from the American Type Culture Collection (ATCC). U2OS (human osteosarcoma) was cultured in Dulbecco's modified Eagle's medium (DMEM). PC3 (human prostate carcinoma), MCF7 (human breast cardinoma), HCT116 (human colon carcinoma), 768-0 (human neuroblastoma), U251 (human glyoblastoma) were grown in RPMI. All media were supplemented with 10% fetal bovine serum (FBS) (Sigma) and antibiotics-antimycotics. Cell were maintained in a humidified incubator at 37° C. with 5% CO2 and passaged when confluent using trypsin/EDTA.
# Subconfluent cells were incubated under different conditions and washed twice with TBS prior to lysis. Lysis buffer was added containing 50 mM Tris HCl, 150 mM NaCl, 1% NP-40, 2 mM Na3VO4, 100 mM NaF, 20 mM Na4P2O7 and protease inhibitor cocktail (Roche Molecular Biochemicals). The proteins were resolved on 10% SDS-PAGE and transferred to nitrocellulose membrane (Schleicher & Schuell, Dassel, Germany). The membranes were incubated overnight at 4° C. with antibodies specific for Akt, phospho-Ser-473-Akt (Cell Signaling Technology) and α-tubulin (Sigma), they were washed and then incubated with IRDye800 conjugated anti-mouse and Alexa Fluor 680 goat anti-rabbit IgG secondary antibodies. The bands were visualized using an Odyssey infrared imaging system (Li-Cor Biosciences).
row,IC50 [nM],SMILES
1,77,CS(=O)(=O)N1CCN(Cc2cn3cc(-c4cnc5[nH]ccc5c4)nc(N4CCOCC4)c3n2)CC1 [Compound 2-75]
2,198,COc1ncc(-c2cn3cc(CN4CCN(S(C)(=O)=O)CC4)nc3c(N3CCOCC3)n2)cn1 [Compound 2-67]
3,503,CS(=O)(=O)N1CCN(C(=O)c2cn3cc(-c4cccc5[nH]ncc45)nc(N4CCOCC4)c3n2)CC1 [Compound 2-16]
4,14,CS(=O)(=O)N1CCN(Cc2cn3cc(-c4ccc(N)nc4)nc(N4CCOCC4)c3n2)CC1 [Compound 2-66]

# Molecular target: T1, PI3K (p110α/p85α) (Homo sapiens, UniProt P42336)
# T1 construct: purchased Carna Biosciences 07CBS-0402A
# T1 sequence (P42336 whole entry): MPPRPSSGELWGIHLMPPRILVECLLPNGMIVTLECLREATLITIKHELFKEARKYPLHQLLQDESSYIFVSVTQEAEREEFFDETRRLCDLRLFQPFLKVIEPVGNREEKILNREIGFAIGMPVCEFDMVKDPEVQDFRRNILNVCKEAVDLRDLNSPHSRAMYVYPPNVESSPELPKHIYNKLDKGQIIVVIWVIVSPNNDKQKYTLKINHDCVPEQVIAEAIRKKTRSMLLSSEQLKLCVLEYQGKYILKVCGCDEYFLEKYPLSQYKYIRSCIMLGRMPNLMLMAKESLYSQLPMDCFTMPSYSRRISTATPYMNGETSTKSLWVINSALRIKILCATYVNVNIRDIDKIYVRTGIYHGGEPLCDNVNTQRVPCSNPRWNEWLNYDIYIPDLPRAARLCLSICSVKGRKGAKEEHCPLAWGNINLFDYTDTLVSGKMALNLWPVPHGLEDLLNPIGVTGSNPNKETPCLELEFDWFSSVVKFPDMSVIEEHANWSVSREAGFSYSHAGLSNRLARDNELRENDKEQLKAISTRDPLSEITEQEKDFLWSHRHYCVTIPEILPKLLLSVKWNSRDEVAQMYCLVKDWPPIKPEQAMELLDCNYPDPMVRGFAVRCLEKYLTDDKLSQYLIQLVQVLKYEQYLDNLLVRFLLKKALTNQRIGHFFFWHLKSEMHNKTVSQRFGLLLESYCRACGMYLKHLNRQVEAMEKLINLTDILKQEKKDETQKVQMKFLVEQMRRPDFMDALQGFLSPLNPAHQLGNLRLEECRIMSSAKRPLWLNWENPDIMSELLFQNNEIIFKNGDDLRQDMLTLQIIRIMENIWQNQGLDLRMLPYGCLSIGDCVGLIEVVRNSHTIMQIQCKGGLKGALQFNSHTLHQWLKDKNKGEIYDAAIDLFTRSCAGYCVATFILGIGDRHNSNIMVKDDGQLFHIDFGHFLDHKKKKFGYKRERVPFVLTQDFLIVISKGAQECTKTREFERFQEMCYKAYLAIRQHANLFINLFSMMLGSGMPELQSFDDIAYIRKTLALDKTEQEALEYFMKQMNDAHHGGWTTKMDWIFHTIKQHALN
# T1 sequence (P27986 whole entry partner): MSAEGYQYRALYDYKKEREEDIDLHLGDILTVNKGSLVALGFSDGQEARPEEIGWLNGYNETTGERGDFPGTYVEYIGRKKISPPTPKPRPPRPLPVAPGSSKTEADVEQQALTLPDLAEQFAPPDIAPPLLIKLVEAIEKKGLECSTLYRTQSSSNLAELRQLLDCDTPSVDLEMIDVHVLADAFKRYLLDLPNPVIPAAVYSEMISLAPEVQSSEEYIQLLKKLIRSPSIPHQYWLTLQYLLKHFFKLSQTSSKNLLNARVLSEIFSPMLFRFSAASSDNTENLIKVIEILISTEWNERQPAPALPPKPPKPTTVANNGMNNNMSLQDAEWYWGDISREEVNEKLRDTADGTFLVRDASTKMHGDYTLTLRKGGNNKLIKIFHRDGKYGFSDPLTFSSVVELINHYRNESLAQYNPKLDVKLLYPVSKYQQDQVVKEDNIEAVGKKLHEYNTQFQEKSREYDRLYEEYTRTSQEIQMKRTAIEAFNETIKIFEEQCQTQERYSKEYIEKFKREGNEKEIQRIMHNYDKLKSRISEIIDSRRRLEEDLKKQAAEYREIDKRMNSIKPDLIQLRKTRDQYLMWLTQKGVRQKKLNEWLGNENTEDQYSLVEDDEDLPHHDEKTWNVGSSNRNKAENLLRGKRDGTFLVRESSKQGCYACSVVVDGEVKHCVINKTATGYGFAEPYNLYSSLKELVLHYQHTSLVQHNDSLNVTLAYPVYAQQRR
# Assay: PI3K activity assay (ADP Hunter Plus)
# Format: biochemical
# Details: quantitative results, Table 4; read-out: PI3Kα IC50
# Protocol: The kinase activity was measured by using the commercial ADP Hunter™ Plus assay available from DiscoveRx (#33-016), which is a homogeneous assay to measure the accumulation of ADP, a universal product of kinase activity. […] Reaction was carried out for 1 hour at 25° C. Reagent A and B were sequentially added to the wells and plates were incubated for 30 min at 37° C. […] Values were normalized against the control activity included for each enzyme (i.e., 100% PI3 kinase activity, without compound). These values were plot against the inhibitor concentration and were fit to a sigmoid dose-response curve by using the Graphad software.
row,IC50 [nM],SMILES
1,37000,CS(=O)(=O)N1CCN(Cc2cn3cc(-c4ccc5[nH]ncc5c4)nc(N4CCOCC4)c3n2)CC1 [Compound 2-127]
2,3000,CS(=O)(=O)N1CC2(CCN(Cc3cn4cc(-c5cccc6[nH]ncc56)nc(N5CCOCC5)c4n3)CC2)C1 [Compound 2-145]

# Same assay, conditions: quantitative results; read-out: PI3Kα IC50
row,IC50 [nM],SMILES
1,4500,COc1ccc(-c2cn3cc(CN4CCN(S(C)(=O)=O)CC4)nc3c(N3CCOCC3)n2)cn1 [Compound 2-61]
2,113,CS(=O)(=O)N1CCN(Cc2cn3cc(-c4cnc5[nH]ccc5c4)nc(N4CCOCC4)c3n2)CC1 [Compound 2-75]
3,50000,Cc1cn2cc(-c3cccc(NS(C)(=O)=O)c3)nc(N3CCOCC3)c2n1 [Compound 2-28]
4,158,CNC(=O)Nc1ccc(-c2cn3cc(CN4CCN(S(C)(=O)=O)CC4)nc3c(N3CCOCC3)n2)cc1 [Compound 2-82]
5,10000,Cc1cn2cc(-c3ccc4cc[nH]c4c3)nc(N3CCOCC3)c2n1 [Compound 2-25]
6,11000,CS(=O)(=O)N1CCN(Cc2cn3cc(-c4ccc(C(N)=O)cc4)nc(N4CCOCC4)c3n2)CC1 [Compound 2-68]
7,169,CS(=O)(=O)N1CCN(Cc2cn3cc(-c4ccc(N)nc4)nc(N4CCOCC4)c3n2)CC1 [Compound 2-66]

row,SMILES,IC50 [nM]
1,CS(=O)(=O)N1C2CCC1CN(Cc1cn3cc(-c4cnc(N)nc4)nc(N4CCOCC4)c3n1)C2 [Compound 2-228],108

# Same assay, conditions: semi-quantitative results; read-out: PI3Kα IC50 (semi-quantitative class)
row,IC50 [nM],SMILES
1,100 to 1000,CN1CCN(c2cnc3c(N4CCOCC4)nc(-c4cccc(O)c4)cn23)CC1 [Compound 2-37]
2,> 1000,COc1cncc(-c2cn3cc(CN4CCN(S(C)(=O)=O)CC4)nc3c(N3CCOCC3)n2)c1 [Compound 2-65]
3,100 to 1000,CN1CCN(c2cnc3c(N4CCOCC4)nc(-c4cccc5[nH]ncc45)cn23)CC1 [Compound 2-38]
4,100 to 1000,COc1ncc(-c2cn3cc(CN4CCN(S(C)(=O)=O)CC4)nc3c(N3CCOCC3)n2)cn1 [Compound 2-67]
5,100 to 1000,Cc1nc2c(N3CCOCC3)nc(-c3cccc4[nH]ncc34)cn2c1C1CCN(C)CC1 [Compound 2-58]
6,100 to 1000,CS(=O)(=O)N1CCN(Cc2cn3c(Cl)c(-c4cccc5[nH]ncc45)nc(N4CCOCC4)c3n2)CC1 [Compound 2-60]
7,100 to 1000,Cc1cn2c(Cl)c(-c3cccc(O)c3)nc(N3CCOCC3)c2n1 [Compound 2-49]
8,100 to 1000,CS(=O)(=O)N1CCN(c2cnc3c(N4CCOCC4)nc(-c4cccc5[nH]ncc45)cn23)CC1 [Compound 2-41]
9,100 to 1000,CS(=O)(=O)N1CCN(C(=O)c2cn3cc(-c4cccc5[nH]ncc45)nc(N4CCOCC4)c3n2)CC1 [Compound 2-16]
10,100 to 1000,CS(=O)(=O)N1CCN(c2cnc3c(N4CCOCC4)nc(-c4cccc(O)c4)cn23)CC1 [Compound 2-39]
11,100 to 1000,Oc1cccc(-c2cn3c(N4CCNCC4)cnc3c(N3CCOCC3)n2)c1 [Compound 2-40]
12,100 to 1000,O=C(c1cn2cc(-c3cccc4[nH]ncc34)nc(N3CCOCC3)c2n1)N1CCNCC1 [Compound 2-18]
